# Assay results published in US20250213546A1, “TREATING CANCER WITH SMALL MOLECULES THAT INHIBIT ACSS-2” (DREXEL UNIVERSITY, priority 2022, published 2025).
# Read-outs that look alike come from different tables or passages of the source.
# Experiments:
# [1] = Human liver microsome stability; assay type: in vitro ADME; conditions: for Human Liver Microsome Stability Remaining(T = 60 min) / Human Liver Microsome Stability Remaining(NCF = 60 min): given as fraction
# Method: (§1) Metabolic Stability and Plasma Stability. Test compound Working solution: 5 μL of compound stock solution (10 mM in dimethyl sulfoxide (DMSO)) were diluted with 495 μL of DMSO (Working solution concentration: 100 μM, 100% DMSO). Propantheline bromide Working solution: 5 μL of Propantheline bromide stock solution (10 mM in H2O) were diluted with 495 μL of H2O (Working solution concentration: 100 μM, 100% H2O)
# hACSS-2 = hACSS-2 (Homo sapiens (Human), UniProt Q9NR19); assay: Surface plasmon resonance (SPR) binding to immobilized hACSS-2; conditions: for koff / kon: 1:1 binding model
# Chain of hACSS-2 (Q9NR19 whole entry): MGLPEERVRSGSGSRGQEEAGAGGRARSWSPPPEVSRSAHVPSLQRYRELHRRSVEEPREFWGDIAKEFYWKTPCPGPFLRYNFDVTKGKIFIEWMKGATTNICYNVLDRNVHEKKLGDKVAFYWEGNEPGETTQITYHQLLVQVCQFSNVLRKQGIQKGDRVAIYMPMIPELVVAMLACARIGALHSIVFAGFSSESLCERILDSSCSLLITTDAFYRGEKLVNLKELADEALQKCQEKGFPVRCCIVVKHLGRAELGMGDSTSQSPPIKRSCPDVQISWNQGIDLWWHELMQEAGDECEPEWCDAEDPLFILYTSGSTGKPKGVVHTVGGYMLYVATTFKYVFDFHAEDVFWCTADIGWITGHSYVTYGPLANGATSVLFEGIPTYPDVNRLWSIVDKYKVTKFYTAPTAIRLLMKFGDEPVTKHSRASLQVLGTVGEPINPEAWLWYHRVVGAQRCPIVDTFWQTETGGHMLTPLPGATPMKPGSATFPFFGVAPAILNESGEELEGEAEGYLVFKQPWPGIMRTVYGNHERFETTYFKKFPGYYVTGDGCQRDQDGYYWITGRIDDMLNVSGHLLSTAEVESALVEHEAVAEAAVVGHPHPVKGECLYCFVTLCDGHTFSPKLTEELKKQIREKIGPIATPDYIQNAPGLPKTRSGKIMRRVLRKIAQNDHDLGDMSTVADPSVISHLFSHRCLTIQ
# Method: SPR characterization. All binding assays were performed on a ProteOn XPR36 SPR Protein Interaction Array System (Bio-Rad Laboratories, Hercules, CA, USA). The instrument temperature was set at 25° C. for all kinetic analyses. ProteOn GLH sensor chips were preconditioned with two short pulses each (10 s) of 50 mM NaOH, 100 mM HCl, and 0.5% sodium dodecyl […]. Then the system was equilibrated with running buffer (1×PBS pH 7.4, 3% DMSO and 0.005% polysorbate 20). The surface of a GLH sensor chip was activated with a 1:100 dilution of a 1:1 mixture of 1-ethyl-3-(3-dimethylaminopropyl) carbodiimide hydrochloride (0.2 M) and sulfo-N-hydroxysuccinimide (0.05 M). […] Then, after unreacted protein had been washed out, excess active ester groups on the sensor surface were capped by a 5 min injection of 1M ethanolamine HCl (pH 8.0) at a flow rate of 5 μL/min. A reference surface was similarly created by immobilizing a nonspecific protein (IgG b12 anti-HIV-1 gp120; was obtained through the NIH AIDS Reagent Program, Division of AIDS, NIAID, NIH: Anti-HIV-1 gp120 Monoclonal (IgG1 b12) from Dr. Dennis Burton and Carlos Barbas) and was used as a background to correct nonspecific binding. Serial dilutions of hACSS-2 inhibitors were then prepared in the running buffer and injected at a flow rate of 100 μL/min, for a 50 s association phase, followed by up to a 5 min dissociation phase using the “one-shot kinetics” capability of the ProteOn instrument. Data were analyzed using the ProteOn Manager Software version 3.0 (Bio-Rad). The responses from the reference flow cell were subtracted to account for the nonspecific binding and injection artifacts. Experimental data were fitted to a simple 1:1 binding model. Experiments were performed in triplicate to detect kinetic and equilibrium dissociation constants (KD).
# Overproduction of hACSS-2 was achieved using a prokaryotic expression system. […] The bacterial expressions were then spun down, the supernatant discarded, and the pellets resuspended. After the cells were lysed via sonication, the sample was subjected to ultracentrifugation, and the clarified lysate was applied to a Talon cobalt resin affinity column (Clonetech Laboratories, Mountain View, CA). The bound protein was eluted from the column using 1×PBS pH 7.4 with 0.3 M imidazole, then dialyzed overnight into 20 mM Tris-HCl pH 8.0, concentrated to 10 mg/mL, aliquoted, and stored at −80° C.
# MDR1 = assay: in vitro; conditions: dog, MDCK-MDR1, pH 7.4, Mean % Solution Recovery A to B
# Method: MDCKI MDR1 cell permeability assessment was performed to mimic the blood brain barrier. MDR1-MDCK I cells were seeded onto […] (PET) in 96-well Corning insert systems at 2.5×10^5 cells/mL until to 4-7 days for confluent cell monolayer formation. The transport buffer in the study was HBSS with 10.0 mM HEPES at pH 7.40+0.05. Test compounds were tested at 2.00 μM bi-directionally in duplicate. […] Final DMSO concentration was adjusted to less than 1%. The plate was incubated for 1.5 hours in CO2 incubator at 37±1° C., with 5% CO2 at saturated humidity without shaking. All samples after mixed with acetonitrile containing internal standard were centrifuged at 3220×g for 10 min. For all samples, 150 μL supernatant solution was diluted with 150 μL ultra-pure water for LC-MS/MS analysis. In addition, the efflux ratio of each compound was also determined. Test and reference compounds were quantified by LC-MS/MS analysis based on the peak area ratio of analyte/IS. After transport assay, Lucifer yellow rejection assay are applied to determine the cell monolayer integrity. Buffers are removed from both apical and basolateral chambers, followed by the addition of 75 μL of 100 μM lucifer yellow in transport buffer and 250 μL transport buffer in apical and basolateral chambers, respectively. […] After 30 minutes incubation, 20 μL of lucifer yellow samples are taken from the apical sides, followed by the addition of 60 μL of Transport Buffer. And then 80 μL of lucifer yellow samples are taken from the basolateral sides.
# The apparent permeability coefficient Papp (cm/s) was calculated using the equation: Papp=(dCr/dt)×Vr/(A×C0) where dCr/dt is the cumulative concentration of compound in the receiver chamber as a function of time (μM/s); Vr is the solution volume in the receiver chamber (0.075 mL on the apical side, 0.25 mL on the basolateral side); A is the surface area for the transport, i.e. 0.0804 cm^2 for the area of the monolayer; CO is the initial concentration in the donor chamber (μM). […] Percent of lucifer yellow in basolateral well is calculated using the equation: Where RFUApical and RFUBasolateral are the relative fluorescence unit values of lucifer yellow in the apical and basolateral wells, respectively; VApical and VBasolateral are the volume of apical and basolateral wells (0.075 mL and 0.25 mL), respectively. The % Lucifer Yellow should be less than 1.0.
# Human plasma stability = assay type: in vitro ADME; conditions: both sexes, 37° C., up to 120 min, read-out: Human Plasma Stability T1/2
# Method: as §1
# Human plasma from 3 males and 3 females was obtained. Heparin was used as the anticoagulant. The pooled frozen plasma was thawed in a water bath at 37° C. prior to experiment. Plasma was centrifuged at 4000 rpm for 5 min and the clots were removed if any. Using an Apricot automation workstation, 98 μL/well of blank plasma were added to all 96-well reaction plates. (Blank, T0, T10, T30, T60 and T120). The appointed incubation time points are T0 (0 min), Tn (n=0, 10, 30, 60, 120 min). An Apricot automation workstation was used to add 2 μL/well of working solution (100 μM) to all reaction plates except Blank. (T0, T10, T30, T60 and T120). All reaction plates containing mixtures of compound and plasma were incubated at 37° C. in water bath. The reaction plates were incubated at 37° C., and timer was started. At the end of incubation, 500 μL of stop solution was added and mixed (200 ng/mL tolbutamide and 200 ng/ml labetalol in ACN) to precipitate protein. Each plate was sealed and shaken for 20 minutes. After shaking, each plate was centrifuged at 4000 rpm and 4° C. for 20 minutes. After centrifugation, an Apricot automation workstation was used to transfer 150 μL of supernatant from each reaction plate to its corresponding bioanaylsis plate. Each bioanalysis plate was sealed and shaken for 10 minutes prior to LC-MS/MS analysis. The % remaining of test compound after incubation in plasma was calculated using following equation: Remaining=100×(PAR at appointed incubation time/PAR at T0 time) where PAR is the peak area ratio of analyte versus internal standard (IS).
# MDA-MB-231-BR = assay: Ex vivo BCBM mouse brain slice model, MDA-MB-231-BR; assay type: cell-based; conditions: bioluminescence
# Method: (§2) Ex vivo brain slice model. Organotypic hippocampal cultures were prepared as described previously (PMID: 34633392). Briefly, adult mice (6-8 week) or mice after 12 days following intracranial injection were decapitated and their brains rapidly removed into ice-cold (4° C.) sucrose-aCSF composed of the following (in mM): 280 sucrose, 5 KCl, 2 MgCl2, 1 CaCl2, 20 glucose, 10 HEPES, 5 Na+-ascorbate, 3 thiourea, 2 Na+-pyruvate; pH=7.3. Brains were blocked with a sharp scalpel and sliced into 250 μm sections using a McIlwain-type tissue chopper (Vibrotome inc). Four to six slices were placed onto each 0.4 μm Millicell tissue culture insert (Millipore) in six-well plates, 1 ml of medium containing the following: Neurobasal medium A (Gibco), 2% Gem21-Neuroplex supplement (Gemini), 1% N2 supplement (Gibco), 1% glutamine (Invitrogen), 0.5% glucose, 10 U/ml penicillin, and 100 μg/ml streptomycin (Invitrogen), placed underneath each insert. One-third to one half of the media was changed every 2 d. Tumor growth was monitored via bioluminescence imaging on the IVIS 200 system (Perkin Elmer) and results analyzed using Living Image software (Caliper Life Sciences, Waltham, MA, USA). […] Tissues were incubated at 37° C., 5% CO2 for 4 hours and absorbance at 490 nm was measured with Tecan Spark Microplate reader.
# FASN = FASN expression (immunoblot); assay type: cell-based, human; conditions: BCBM cells
# Method: ACSS-2 provides Acetyl-CoA for numerous metabolic processes vital for cancer proliferation. The human fatty acid synthase (FASN) is essential for BCBM growth and survival (FIG. 13A), and hACSS-2 does regulate FASN protein expression levels BCBM cells (FIG. 13B).
# ACSS2 inhibitors on levels of lipid droplet storage. Briefly, cell lysates from 1-5×10^6 cells were prepared in radioimmune precipitation assay buffer (150 mM NaCl, 1% NP40, 0.5% DOC, 50 mM Tris HCL at pH 8, 0.1% SDS, 10% glycerol, 5 mM EDTA, 20 mM NaF, and 1 mM Na3 VO4) supplemented with 1 μg/ml each of pepstatin, leupeptin, aprotinin, and 200 μg/ml PMSF. Lysates were cleared by centrifugation at 16,000×g for 15 minutes at 4° C. and analyzed by SDS-PAGE and autoradiography with chemiluminescence. Proteins were analyzed by immunoblotting using primary antibodies against Fatty Acid Synthase (FASN) (Cell Signaling) and beta-Tubulin (Cell Signaling) (FIG. 16A).
# 4T1-BR = assay: Ex vivo BCBM mouse brain slice model, 4T1-BR; assay type: cell-based; conditions: bioluminescence
# Method: as §2
# MDA-MB-231BR cells = assay: Clonogenicity assay; assay type: cell-based; conditions: after treatment
# Method: Triple-negative brain trophic cells MDA-MB-231BR (Center for Cancer Research, National Cancer Institute) were cultured with 10% fetal bovine serum (FBS), 5% 10,000 Units/mL Penicillin-10,000 μg/mL Streptomycin, and 5% 200 mM L-Glutamine. […] For crystal violet staining, 5×10^4 cells were plated in to a 6-well plate and subjected to the treatments as described in the individual figures and then stained with 0.5% crystal violet prepared in a 1:1 methanol-water solution followed by dH2O washes.
# To assess clonogenic survival, cells were cultured and detached in their respective growth media, then counted using a hemocytometer. 1,000 cells were plated in triplicate in 6-well plates in their respective growth media and allowed to form colonies. Cells were grown for 14 days. Upon conclusion of growth period, colonies were stained with crystal violet. Colony numbers were quantified based on number of colonies with >40 cells. For clonogenic survival based on drug exposure, 100,000 cells were plated in a 6-well plate, then 24 hours later treated with noted concentration of drug for 48 hours. After 48 hours, cells in each concentration condition were lifted, counted, and plated per the described clonogenic survival protocol and allowed to grow for noted length of time in noted growth media. […] Colony numbers were quantified based on number of colonies with >40 cells.
# [2] = Langmuir isotherm equilibrium fit, mean, n = 3, read-out: KD [μM] equilibrium
# [3] = global fit, mean, n = 3, read-out: KD [μM] kinetic/global
# [4] = read-out: Affinity (KD in μM) for hACSS-2 mean ± SD (n = 3), SPR, one site binding model isotherm, triplicate
smiles,measurement,setting,value
"O=C(O)Cc1ccccc1Nc1c(Cl)cccc1Cl [Diclofenac, reference compound]",Human Liver Microsome Stability Remaining(T = 60 min),[1],0.00044
same,Human Liver Microsome Stability Remaining(NCF = 60 min),[1],0.8763
O=C(CC1CCNC1)NCCC(c1ccccc1)c1ccccc1 (centres unmarked) [AD-8972],koff,"hACSS-2; mean, n = 3",0.401 s⁻¹
same,kon,"hACSS-2; mean, n = 3",2830 M⁻¹ s⁻¹
same,Kd,hACSS-2; [2],124 µM
same,Kd,hACSS-2; [3],149 µM
same,Kd,hACSS-2; [4],116 ± 82 µM
NC1(C(=O)N2CCCC(c3ccccc3)(c3ccccc3)C2)CC1 [AD-6772],Kd,hACSS-2; [4],80 ± 20 µM
O=S(=O)(NCCC(c1ccccc1)c1ccco1)N1CCOCC1 (centres unmarked) [AD-4859],Kd,hACSS-2; [4],52 ± 2 µM
CN1CCC(O)(C(=O)NCCc2ccccc2Oc2ccccc2)CC1 [AD-7346],koff,"hACSS-2; mean, n = 3",0.399 s⁻¹
same,kon,"hACSS-2; mean, n = 3",10100 M⁻¹ s⁻¹
same,Kd,hACSS-2; [2],39.8 µM
same,Kd,hACSS-2; [3],49.4 µM
same,Kd,hACSS-2; [4],53 ± 21 µM
"COCCc1ccc(OCC(O)CNC(C)C)cc1 (centres unmarked) [Metoprolol, reference compound]","recovery at 1.5 h, 2 μM",MDR1,94.2%
CN1CCN(CCC(=O)N2CCCC(c3ccccc3)(c3ccccc3)C2)CC1 [AD-0029],Kd,hACSS-2; [4],356 ± 108 µM
Cc1cccn2c(CC(=O)NCCC(c3ccccc3)c3ccco3)cnc12 (centres unmarked) [AD-3766],half-life at 2 µM,Human plasma stability,> 289 min
same,koff,"hACSS-2; mean, n = 3",0.359 s⁻¹
same,kon,"hACSS-2; mean, n = 3",5010 M⁻¹ s⁻¹
same,Kd,hACSS-2; [2],70.6 µM
same,Kd,hACSS-2; [3],77.6 µM
same,Kd,hACSS-2; [4],67 ± 13 µM
same,Human Liver Microsome Stability Remaining(T = 60 min),[1],0.0005
same,Human Liver Microsome Stability Remaining(NCF = 60 min),[1],0.9639
same,Human Liver Microsome Stability CLint(liver),"[1]; human liver microsomes, scaled to liver",1364.4891 mL/min/kg
O=C(CCN1CCCC(c2ccccc2)(c2ccccc2)C1)NC1CC1 [AD-2441],"BCBM growth, MDA-MB-231-BR",MDA-MB-231-BR,suppress BCBM growth
same,FASN expression levels,FASN,downregulates FASN expression levels
same,"BCBM growth, 4T1-BR",4T1-BR,suppress BCBM growth
same,reproductive cell death (clonogenicity),MDA-MB-231BR cells,confirmed
"C[C@]12CC[C@H]3[C@@H](CCC4=CC(=O)CC[C@@]43C)[C@@H]1CC[C@@H]2O [Testosterone, reference compound]",Human Liver Microsome Stability Remaining(T = 60 min),[1],0.06959
same,Human Liver Microsome Stability Remaining(NCF = 60 min),[1],0.8976
"CC(C)[N+](C)(CCOC(=O)C1c2ccccc2Oc2ccccc21)C(C)C [Propantheline Bromide, Propantheline bromide, reference compound]",half-life at 2 µM,Human plasma stability,18.6 min
